The nature of data set [1]: MTT cytotoxicity assay on MT-2 cells. Particulars: human. As for the experimental part:
(§1) The permanent human T-cell lines MT-4 and MT-2 were maintained at 37°C in a humidified atmosphere containing 5% CO2 in RPMI 1640 (Sigma-Aldrich) medium supplemented with 10% heat-inactivated fetal bovine serum (Sigma-Aldrich), 100 IU/ml penicillin and 100 μg/ml streptomycin (Sigma-Aldrich). HIV-1 (HTLV-IIIB) was obtained from the culture supernatant of MT-4/HTLV-IIIB cells. The 50% HIV-1 tissue culture infectious dose (TCID50) on MT-4 cells was determined by virus yield assay.
(§2) To determine the in vitro cytotoxic effect of the compounds, viability of the treated and untreated cells was measured by a colorimetric assay as described earlier. Briefly, MT-4 and MT-2 cells were seeded into a 96-well plate at a density of 15,000 cells/well in the presence of different concentrations of the compounds dissolved in dimethyl sulfoxide (DMSO). […] After 4 days of incubation, cell cultures were analyzed using MTT cell viability assay (Sigma-Aldrich) to monitor the reduction of 3-(4,5-dimethylthiazol-2-yl)-2,5-diphenyl-tetrazolium bromide (MTT) to a blue formazan product by metabolically active cells. To initiate the cell viability assay, 20 μl MTT (5 mg/mL dissolved in PBS) was added to each well. After 4 h incubation cell supernatant was removed and 100 μl DMSO per well was added. The absorbance was measured at 550 nm on a microplate reader after mixing the contents thoroughly. The cytotoxicity tests were implemented in two biological replicates.
Background: Tetrazolium dyes change colour on reduction, which living cells bring about.

Data set [2] relates to HIV-1. Details: method as in PMID 25546350. Particulars: C8166 cells; cited from earlier work.
Data set [3] has as its system HIV-1. Details: method as in PMID 25546350. The conditions noted are these: C8166 cells; cited from earlier work. This is another data set of the same source.
In data set [4] the test system is HIV-1 BaL, HIV-1 MN. Details: method as in PMID 25546350. The conditions noted are these: TZM-bl cell plus HIV-1 BaL and H9, and PBMC plus HIV-1 MN; read-out: IC50 antiviral effect; cited from earlier work.
Data set [5] has as its system HIV-1 (HTLV-IIIB). Kind of data set: Cell-based antiviral assay, HIV-1 p24 core protein ELISA in supernatants of infected MT-4 and MT-2 cells. The conditions noted are these: nontoxic concentrations (2.1 μM), 5 days of incubation. As for the experimental part:
MT-4 and MT-2 cells at a density of 15,000 cells/well were incubated in 96-well plates in the presence of compounds at 37°C in 5% CO2 for 5 days. Simultaneously, cells were exposed to HIV-1 (2,32∗10^2 TCID50/ml). Untreated and infected or AZT (3′-azido-3′-deoxythymidine)-treated cells were used as controls. After the incubation period, diluted culture supernatants were analyzed for HIV production by determining the amount of viral core protein using a p24 enzyme-linked immunosorbent assay (ELISA) kit (Fujirebio) according to manufacturer's instructions. The results were expressed relative to the control of untreated HIV-1 infected cells. The experiment was performed in four biological replicates. Statistical analysis was performed by one-way ANOVA followed by Bonferroni's post hoc test.
In general terms: ELISA stands for enzyme-linked immunosorbent assay.

For data set [6], the system named is HIV. Details: method as in doi:10.3844/ajidsp.2009.135.141. The conditions noted are these: normal peripheral blood mononuclear cells (PBMC); cited from earlier work.
Data set [7] can be described thus: MTT cytotoxicity assay on MT-4 cells. The conditions noted are these: human. The method, then:
as §1, §2

Data set [8] deals with T1, recombinant HIV-1 integrase (IN) (Human immunodeficiency virus type 1 group M subtype B, UniProt P04585).
T1 construct: activity of recombinant HIV-1 reverse transcriptase (RT) and integrase (IN); purchased Express Biotech International
Kind of data set: HIV-1 integrase inhibition, IN assay kit. Particulars: 2.15 μM concentration. Type of data set: biochemical. As for the experimental part: (§3) Inhibitory effects of compounds on the HIV-1 reverse transcriptase and integrase activity were measured by a colorimetric RT kit (Roche Diagnostics) and IN assay kit (Express Biotech International) according to the instructions of the manufacturer. Reverse transcriptase assay measures the amount of labeled nucleotides incorporated during the transcription process of RNA. Nevirapine, a nonnucleoside RT inhibitor, was used as a positive control in the RT reaction. HIV-1 integrase assay measures the integrase activity after 3′-end processing of the HIV-1 LTR donor substrate DNA and catalyzing the strand-transfer recombination reaction to integrate the donor substrate DNA into the target substrate DNA. Sodium azide was applied as a positive control compound in the experiments measuring the integrase activity. The RT and IN inhibition assays were performed in two biological replicates. Statistical analysis was performed by one-way ANOVA followed by Bonferroni's post hoc test, and a planned comparison by unpaired T-test was also performed (see Figure 3(b)).

The target in data set [9] is T2, recombinant HIV-1 reverse transcriptase (RT) (Human immunodeficiency virus type 1 group M subtype B, UniProt P04585).
T2 construct: activity of recombinant HIV-1 reverse transcriptase (RT) and integrase (IN); purchased Roche Diagnostics
Kind of data set: HIV-1 reverse transcriptase inhibition, colorimetric RT kit. In kind it is biochemical. The conditions noted are these: 21.5 μM concentration. The method, then:
as §3

For data set [10], the system named is IN. The conditions noted are these: cited from earlier work.
For data set [11], the system named is HIV. Details: method as in PMID 12213478. The conditions noted are these: MT-2 cells; read-out: IC50 HIV infection of MT-2 cells; cited from earlier work.
In data set [12] the test system is IN (strand transfer reaction). Details: method as in PMID 12213478. The conditions noted are these: in vitro; cited from earlier work.
Data set [13] concerns MT-2 cells. Particulars: at concentrations as high as 800 μM; cited from earlier work.

In general, CC50 refers to the concentration at which the toxic effect on the cells reaches its halfway point. A high value points to better tolerance by the cells. As usually defined, the IC50 is the concentration at which inhibition is half-maximal. For the compound `O=c1c(O)c(-c2ccc(O)c(O)c2)oc2cc(O)cc(O)c12` [Quercetin (3), quercetin], the CC50 at 4 days in data set [1] was determined as 157 µM; in data set [7] it was 108 µM. For the same compound, in data set [2], the “EC50 inhibition of syncytium formation” value was 42.55 µg/mL. The “EC50 protection of HIV-1 induced cytopathic effects” value in [3] is 23.2 µg/mL. The IC50 in data set [4] is 29.8 to 89 µM. In addition, in data set [5], the “Effect on HIV-1 replication (p24 core protein levels)” value (“Effect on HIV-1 replication” for short) was “reduced HIV-1 replication”. Also, the “Anti-HIV activity (HIV replication, virus infectivity)” value in [6] was “significant anti-HIV activity”.

For the compound `O=c1c(O)c(-c2ccc(O)cc2)oc2c(O)c(OC3OC(CO)C(O)C(O)C3O)cc(O)c12` (stereo not drawn) [Herbacitrin (1), herbacitrin], the CC50 at 4 days was 63.6 µM in data set [1] (MT-2 cells) and 27.8 µM in data set [7] (MT-4 cells). Also, the entries for the “Inhibition of HIV-1 integrase activity” value in [8] (listed as Herbacitrin) and in [8] (listed as herbacitrin) were “active” and “inhibited”, respectively. Also, the “Inhibition of HIV-1 reverse transcriptase activity” value in data set [9] (listed as Herbacitrin) is “inhibit”; in data set [9] (listed as herbacitrin), “significantly inhibited”. Also, the “Effect on HIV-1 replication” value in data set [5] is reported as “reduced HIV-1 replication”.

As to `O=c1c(O)c(-c2ccc(O)c(O)c2)oc2cc(O)c(O)c(O)c12` [quercetagetin, quercetagetin (6-hydroxyquercetin)], in data set [10], the “Inhibition of viral cleavage and integration” value is “strong inhibitor”.

For the compound `O=c1c(O)c(-c2ccc(O)c(O)c2)oc2c(O)c(OC3OC(CO)C(O)C(O)C3O)cc(O)c12` (stereo not drawn) [Gossypitrin (2), gossypitrin], the CC50 at 4 days came out at 113 µM in data set [1] (MT-2 cells) and 101 µM in [7] (MT-4 cells). For the same compound, in data set [5], the “Effect on HIV-1 replication” value was “ineffective”.

Turning to `O=c1cc(-c2ccc(O)c(O)c2)oc2cc(O[C@@H]3O[C@H](CO)[C@@H](O)[C@H](O)[C@H]3OS(=O)(=O)O)cc(O)c12` [Thalassiolin A], in data set [11], the 50% inhibitory concentration (IC50) is around 30 µM. For the same compound, the “Inhibitory concentration against the strand transfer reaction” value in [12] is on record as “submicromolar”. In addition, the Cytotoxicity entry in [13] is recorded as “no cytotoxicity”.

Values taken from PMC6378053, “Flavonol 7-O-Glucoside Herbacitrin Inhibits HIV-1 Replication through Simultaneous Integrase and Reverse Transcriptase Inhibition” (Evidence-based Complementary and Alternative Medicine : eCAM, 2019).
